# PMC12072186, “A Novel Small Molecule Enhances Stable Dopamine Delivery to the Brain in Models of Parkinson’s Disease” (International Journal of Molecular Sciences, 2025)
# Like-named read-outs stand apart in the source and are kept apart here.
# Experiments:
# [1] = test system: MPTP-treated C57BL/6 mice; assay: Rotarod test in MPTP-treated mice; assay type: in vivo, mouse; conditions: MPTP 25 mg/kg i.p. day 1–5; treatment day 1–13; vs MPTP vehicle control
# Protocol: (§1) MPTP was injected to male C57BL/6 mice for 5 consecutive days (Figure 4A) to destroy DA neurons, and then the mice were treated with Pegasus alone or Pegasus + Benserazide compared to L-dopa alone or L-Dopa + Benserazide.
# (§2) From day 1 to day 5, MPTP was administered to all the groups except Naive at a dose of 25 mg/kg, i.p., QD. Treatment with Pegasus alone (50 mg/kg, i.p., BID), a combination of Pegasus 50 mg/kg, BID + Benserazide 10 mg/kg, QD, or a combination of L-Dopa 10 mg/kg, QD + Benserazide 10 mg/kg, QD or standalone L-Dopa 10 mg/kg, QD, started on day 1 and continued until day 13. On day 13, after the first dose of Pegasus, 4 animals/time point from each group were sacrificed at 0.5, 1, 3, 6, and 12 h, and the blood and brains were collected.
# The mice were placed on an accelerating Rotarod (Columbus Instruments, Columbus, OH, USA) equipped with individual timers for each mouse. […] The mice were trained for 3 consecutive days before the final measurement.
# [2] = cited from earlier work
# [3] = test system: MPTP-treated C57BL/6 mice; assay: Grip strength test in MPTP-treated mice; assay type: in vivo, mouse; conditions: MPTP 25 mg/kg i.p. day 1–5; treatment day 1–13; vs MPTP vehicle control
# Protocol: as §1, §2
# The maximal muscle/grip strength of forelimbs was measured using a strength meter.
# [4] = In vivo metabolism, metabolite profiling in rat brain and plasma (LC-MS/MS); conditions: male, Sprague Dawley, intraperitoneal, 50 mg/kg; relative abundance brain vs plasma, rat
# Protocol: In vivo metabolism: We performed a metabolism study (Figure 2) in male Sprague Dawley rats (6–8 weeks old) after a single i.p. injection of 50 mg/kg Pegasus. Plasma and brain samples were serially collected and assessed for the presence of possible phase-I and phase-II metabolites. […] The relative abundance of Pegasus and its metabolites in the brain and plasma was determined at the ionization parameters of the parent.
# Metabolite profiling was performed in rat brain and plasma samples to detect phase-I and phase-II metabolites in male Sprague Dawley rats (6–8 weeks old, n = 6) injected (i.p.) with 50 mg/kg Pegasus. The formulation vehicle of Pegasus was 5% DMSO + 35% polyethylene glycol (PEG) 400 + 60% normal saline, and this formulation was used to measure the plasma and brain concentrations of Pegasus and all other metabolites. All samples obtained after Pegasus dosing in rats by the i.p. route of administration were used for metabolite profiling and compared to normal saline. Blood (n = 16 samples) was collected via retro-orbital plexus puncture 0.25, 1, 4, 6, 8, and 24 h pre-dose, and brain sampling was 1, 4, and 24 h post-dose (n = 6 per group). The brain samples were cleaned and perfused, then washed with PBS. The brains (approximately 1.5 g) were transferred to a 50 mL centrifuge tube and 36 mL of ice-cold PBS was added. The mixture was homogenized for about 1–2 min to obtain a uniform suspension. The precipitate was allowed to settle for 30 min at 4 °C, and 15 mL of the middle layer was collected. The plasma and brain samples were processed by the protein precipitation method. In total, 175 μL of acetonitrile was added to 25 μL of plasma samples. The samples were mixed, followed by centrifugation at 4000 rpm for 20 min. The supernatant from the samples was subjected to LC-MS/MS analysis.
# The samples were analyzed by liquid chromatography tandem mass spectrometry (HPLC: LC series, Shimadzu, Chiyoda-ku, Tokyo, Japan; mass spectrometer: API4000 Triple Quad mass spectrometer, Applied Biosystems, Carlsbad, CA, USA). The samples (n = 6) were processed using protein precipitation and 1 mM stock solution, prepared in DMSO, spiked into acetonitrile to a final concentration of 4 µM, and processed using liquid chromatography tandem mass spectrometry, employing a linear gradient method using MH+/MH−(Q1) and product ion (MS/MS) scans. The evaluation of the Pegasus metabolites included demethylation, de-hydroxylation, amide cleavage, oxidation, de-hydrogenation, glucuronidation, sulfation, glutathione conjugation, and several other possibilities. The relative abundance of Pegasus and its metabolites in the brain and plasma was determined at the ionization parameters of the parent.
# MPTP models of PD = test system: MPTP models of PD; design: method as in PMID 11724929; conditions: cited from earlier work
smiles,measurement,setting,value
N[C@@H](Cc1ccc(O)c(O)c1)C(=O)O [L-Dopa],Latency to fall (Rotarod),[1],significantly increased latency to fall
same,Half-life T1/2,[2]; in combination with DDCI,60 to 90 min
same,Levodopa brain entry,[2]; in combination with dopa-carboxylase enzyme inhibitor (DDCI),up to 10%
same,Half-life T1/2,[2]; levodopa administered alone,46.2 to 64.8 min
same,Share of oral dose that reaches the brain,[2]; levodopa administered alone,1%
same,Share reaching the brain,[2]; with DDCI and selective COMT inhibitors,up to 40%
same,Forelimb grip strength,[3],significantly reversed back to normal levels
NC(=O)CCC(=O)NCCc1cc(O)c(O)c(SCC(N)C(=O)O)c1 (stereo not drawn) [M11],Kp,[4],1.31
CN(C)c1ccc(O)c2c1C[C@H]1C[C@H]3[C@H](N(C)C)C(O)=C(C(N)=O)C(=O)[C@@]3(O)C(O)=C1C2=O [Minocycline],Striatal cell loss,MPTP models of PD,prevents striatal cell loss
